Experimental data from ChEMBL document CHEMBL1201862, “PubChem BioAssay data set” (2004).
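1) Cells in 96-well plates. 2) Compound, 48 h, 5 concentrations. 3) Linear interpolation between surrounding doses. 4) Unreached endpoint = highest concentration. Abbreviation: GI50, concentration required for 50% inhibition of growth.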 Calls of active or inactive are those of the source. Cut-off read from the data, not from the text of the source: active = GI50 up to about 1.1 µM and inactive = higher.

Assays:
Assay in all cases: growth of human tumour cells (NCI), 48 h
A498 = tested on: A498
A549 = tested on: A549
CAKI-1 = tested on: CAKI-1
HT-29 = tested on: HT-29
KM12 = tested on: KM12
Malme-3M = tested on: Malme-3M
NCI-H23 = tested on: NCI-H23
RPMI-8226 = tested on: RPMI-8226
RXF 393 = tested on: RXF 393
SF-268 = tested on: SF-268
SF-295 = tested on: SF-295
SK-MEL-5 = tested on: SK-MEL-5
SN12C = tested on: SN12C
SNB-75 = tested on: SNB-75
SW-620 = tested on: SW-620
U-251 = tested on: U-251
UACC-257 = tested on: UACC-257
UACC-62 = tested on: UACC-62
HCT-116 = tested on: HCT-116
HOP-92 = tested on: HOP-92

SMILES	GI50 (A498)	GI50 (A549)	GI50 (CAKI-1)	GI50 (HT-29)	GI50 (KM12)	GI50 (Malme-3M)	GI50 (NCI-H23)	GI50 (RPMI-8226)	GI50 (RXF 393)	GI50 (SF-268)	GI50 (SF-295)	GI50 (SK-MEL-5)	GI50 (SN12C)	GI50 (SNB-75)	GI50 (SW-620)	GI50 (U-251)	GI50 (UACC-257)	GI50 (UACC-62)	GI50 (HCT-116)	GI50 (HOP-92)
O=C1OC(c2ccc(Cl)cc2)(c2ccc(Cl)cc2)c2c1ccc1ccccc21	> 100 µM (inactive)	> 100 µM (inactive)	> 100 µM (inactive)	> 100 µM (inactive)	> 100 µM (inactive)	> 100 µM (inactive)	8.67 µM (inactive)	5.94 µM (inactive)	20.9 µM (inactive)	> 100 µM (inactive)	> 100 µM (inactive)	52.5 µM (inactive)	> 100 µM (inactive)	36.7 µM (inactive)	> 100 µM (inactive)	> 100 µM (inactive)	> 100 µM (inactive)	> 100 µM (inactive)	–	–
CCOC(=O)CC(NC(=O)c1ccc(/N=N/N(C)C)cc1)C(=O)OCC (stereo unspecified)	> 100 µM (inactive)	> 100 µM (inactive)	> 100 µM (inactive)	> 100 µM (inactive)	> 100 µM (inactive)	> 100 µM (inactive)	> 100 µM (inactive)	> 100 µM (inactive)	–	> 100 µM (inactive)	> 100 µM (inactive)	> 100 µM (inactive)	> 100 µM (inactive)	91.8 µM (inactive)	> 100 µM (inactive)	> 100 µM (inactive)	> 100 µM (inactive)	63.4 µM (inactive)	> 100 µM (inactive)	–
O=C1CN(c2ccccc2)C(=O)C1C(=O)Nc1ccc(Cl)c(Cl)c1 (stereo unspecified)	–	2.72 µM (inactive)	–	3.68 µM (inactive)	–	–	7.31 µM (inactive)	–	–	6.32 µM (inactive)	3.72 µM (inactive)	1.36 µM (inactive)	4.73 µM (inactive)	0.973 µM (active)	1.21 µM (inactive)	3.78 µM (inactive)	8.28 µM (inactive)	1.73 µM (inactive)	–	2.53 µM (inactive)
O=C1NC2(CCCCC2)C2CCCCCC12 (stereo unspecified)	> 100 µM (inactive)	> 100 µM (inactive)	–	> 100 µM (inactive)	> 100 µM (inactive)	> 100 µM (inactive)	> 100 µM (inactive)	–	> 100 µM (inactive)	> 100 µM (inactive)	> 100 µM (inactive)	–	> 100 µM (inactive)	> 100 µM (inactive)	> 100 µM (inactive)	> 100 µM (inactive)	> 100 µM (inactive)	> 100 µM (inactive)	> 100 µM (inactive)	–
CC1=NC(C(=O)O)Cc2c1[nH]c1ccccc21 (stereo unspecified)	> 100 µM (inactive)	–	> 100 µM (inactive)	> 100 µM (inactive)	–	> 100 µM (inactive)	> 100 µM (inactive)	> 100 µM (inactive)	–	> 100 µM (inactive)	> 100 µM (inactive)	> 100 µM (inactive)	> 100 µM (inactive)	> 100 µM (inactive)	> 100 µM (inactive)	> 100 µM (inactive)	–	> 100 µM (inactive)	–	14.6 µM (inactive)
COc1cc2c(cc1OC)C(Cl)C(c1cc(OC)c(OC)c(OC)c1)=C2Cl (stereo unspecified)	22.3 µM (inactive)	–	9.1 µM (inactive)	14.4 µM (inactive)	–	14.1 µM (inactive)	19.3 µM (inactive)	8.71 µM (inactive)	–	16.6 µM (inactive)	15.2 µM (inactive)	15.6 µM (inactive)	13.9 µM (inactive)	2.69 µM (inactive)	18.8 µM (inactive)	16.4 µM (inactive)	–	13.6 µM (inactive)	–	4.73 µM (inactive)
CCOC(=O)c1csc(NC(=O)CCCC#N)n1	> 100 µM (inactive)	> 100 µM (inactive)	> 100 µM (inactive)	> 100 µM (inactive)	> 100 µM (inactive)	–	> 100 µM (inactive)	> 100 µM (inactive)	> 100 µM (inactive)	–	> 100 µM (inactive)	> 100 µM (inactive)	–	> 100 µM (inactive)	> 100 µM (inactive)	> 100 µM (inactive)	> 100 µM (inactive)	> 100 µM (inactive)	–	> 100 µM (inactive)
N#CC(=N)c1ncn(-c2ccccc2N)c1N	> 100 µM (inactive)	> 100 µM (inactive)	> 100 µM (inactive)	> 100 µM (inactive)	> 100 µM (inactive)	> 100 µM (inactive)	> 100 µM (inactive)	> 100 µM (inactive)	–	> 100 µM (inactive)	> 100 µM (inactive)	> 100 µM (inactive)	> 100 µM (inactive)	> 100 µM (inactive)	> 100 µM (inactive)	> 100 µM (inactive)	> 100 µM (inactive)	> 100 µM (inactive)	> 100 µM (inactive)	–
CCOC(=O)CNC(=O)C(CCC(=O)N(C)O)NC(=O)CCC(N)C(=O)O (stereo unspecified)	> 100 µM (inactive)	> 100 µM (inactive)	> 100 µM (inactive)	> 100 µM (inactive)	> 100 µM (inactive)	–	> 100 µM (inactive)	> 100 µM (inactive)	> 100 µM (inactive)	> 100 µM (inactive)	> 100 µM (inactive)	> 100 µM (inactive)	> 100 µM (inactive)	> 100 µM (inactive)	> 100 µM (inactive)	> 100 µM (inactive)	> 100 µM (inactive)	> 100 µM (inactive)	> 100 µM (inactive)	> 100 µM (inactive)
O=C(NNC(=S)NCc1ccccc1)C12CC3CC(CC(C3)C1)C2	> 100 µM (inactive)	–	–	45.3 µM (inactive)	40.6 µM (inactive)	> 100 µM (inactive)	74.6 µM (inactive)	45.1 µM (inactive)	89.1 µM (inactive)	58.9 µM (inactive)	34.4 µM (inactive)	–	> 100 µM (inactive)	49.4 µM (inactive)	48 µM (inactive)	49.8 µM (inactive)	52.5 µM (inactive)	66.7 µM (inactive)	34.5 µM (inactive)	–
Cc1c(Cl)cccc1NC(=O)/C=C/c1ccccc1	> 100 µM (inactive)	> 100 µM (inactive)	16.3 µM (inactive)	> 100 µM (inactive)	77.8 µM (inactive)	> 100 µM (inactive)	> 100 µM (inactive)	97.9 µM (inactive)	–	74.1 µM (inactive)	> 100 µM (inactive)	> 100 µM (inactive)	> 100 µM (inactive)	22.8 µM (inactive)	> 100 µM (inactive)	> 100 µM (inactive)	> 100 µM (inactive)	> 100 µM (inactive)	> 100 µM (inactive)	21 µM (inactive)
Cc1cc2c(C(C)C)c(O)c(O)c(/C=N/c3ccccc3)c2c(O)c1-c1c(C)cc2c(C(C)C)c(O)c(O)c(/C=N/c3ccccc3)c2c1O	–	> 100 µM (inactive)	> 100 µM (inactive)	> 100 µM (inactive)	> 100 µM (inactive)	> 100 µM (inactive)	–	> 100 µM (inactive)	> 100 µM (inactive)	> 100 µM (inactive)	> 100 µM (inactive)	–	> 100 µM (inactive)	67.8 µM (inactive)	> 100 µM (inactive)	–	–	> 100 µM (inactive)	> 100 µM (inactive)	> 100 µM (inactive)
CC(NC(=O)Cc1ccccc1)NC(=O)C(C)C(=O)NCc1ccccc1 (stereo unspecified)	–	> 100 µM (inactive)	81.7 µM (inactive)	> 100 µM (inactive)	> 100 µM (inactive)	> 100 µM (inactive)	> 100 µM (inactive)	> 100 µM (inactive)	42.6 µM (inactive)	33.3 µM (inactive)	21.7 µM (inactive)	> 100 µM (inactive)	53.5 µM (inactive)	38.8 µM (inactive)	> 100 µM (inactive)	50.6 µM (inactive)	> 100 µM (inactive)	> 100 µM (inactive)	> 100 µM (inactive)	31.4 µM (inactive)
COc1ccc2c(C)cc(N/N=C/c3sccc3C)nc2c1	–	13.3 µM (inactive)	–	2.81 µM (inactive)	8.05 µM (inactive)	6.95 µM (inactive)	14.7 µM (inactive)	5.69 µM (inactive)	14.9 µM (inactive)	17.4 µM (inactive)	14.7 µM (inactive)	6.24 µM (inactive)	7.11 µM (inactive)	12.1 µM (inactive)	21.6 µM (inactive)	17.9 µM (inactive)	10.1 µM (inactive)	15.9 µM (inactive)	4.08 µM (inactive)	16.1 µM (inactive)
Clc1ccc2c(c1)CC1C[N+]3=C(CCCCC3)C1=C2 (stereo unspecified)	18.3 µM (inactive)	30.3 µM (inactive)	> 100 µM (inactive)	37.8 µM (inactive)	50.5 µM (inactive)	63 µM (inactive)	37.4 µM (inactive)	–	> 100 µM (inactive)	50.8 µM (inactive)	64.1 µM (inactive)	30.3 µM (inactive)	80.4 µM (inactive)	0.349 µM (active)	> 100 µM (inactive)	23.7 µM (inactive)	28.8 µM (inactive)	> 100 µM (inactive)	> 100 µM (inactive)	7.1 µM (inactive)
CO[C@@H]1O[C@H](C(=O)c2ccccc2)[C@H]2OC(C)(C)O[C@@H]12	> 100 µM (inactive)	–	> 100 µM (inactive)	–	> 100 µM (inactive)	–	94.8 µM (inactive)	> 100 µM (inactive)	> 100 µM (inactive)	> 100 µM (inactive)	> 100 µM (inactive)	> 100 µM (inactive)	89.7 µM (inactive)	96.8 µM (inactive)	56.8 µM (inactive)	> 100 µM (inactive)	> 100 µM (inactive)	> 100 µM (inactive)	75.3 µM (inactive)	> 100 µM (inactive)
